Converted amounts (≈) assume the structure as drawn.
Experiments:
Streptococcus pyogenes [1] = assay: In vitro MIC, anaerobic agar dilution, Strep. pyogenes; format: cell-based; conditions: brain-heart infusion agar, 37°C.
Protocol: (§1) The in vitro activities are determined under anaerobic conditions in the following manner. Appropriate serial two-fold dilutions of the compounds are mixed with molten brain-heart infusion agar in sterile petri dishes and allowed to solidify. The bacterial cells (approximately 10^5 -10^6 cells) are placed on the top of the agar plate with a Steers replicating device. The plates are incubated at 37°C. in the anaerobic conditions achieved by a Gas Pak (BBL, Cockeysville, […].). The M.I.C. […] The in vitro and in vivo activities of compounds within this invention versus Streptococcus pyogenes and Escherichia coli are presented below: ##SPC4##

Escherichia coli [2] = assay: In vitro MIC, anaerobic agar dilution, E. coli; format: cell-based; conditions: brain-heart infusion agar, 37°C.
Protocol: as §1

Streptococcus pyogenes [3] = assay: In vivo survivors (SC route), Strep. pyogenes infection; conditions: SC route (subcutaneous); for responders at 100 mg/kg: 100 mg./kg. (footnote b)
Text: (§2) The in vitro and in vivo activities of compounds within this invention versus Streptococcus pyogenes and Escherichia coli are presented below: ##SPC4##

Escherichia coli [4] = assay: In vivo survivors (SC route), E. coli infection; conditions: SC route (subcutaneous); for responders at 100 mg/kg: 100 mg./kg. (footnote b)
Text: as §2

Row | MIC (Streptococcus pyogenes [1]) [µg/mL] | MIC (Escherichia coli [2]) [µg/mL] | SMILES | responders at 50 mg/kg (Streptococcus pyogenes [3]) [%] | responders at 25 mg/kg (Escherichia coli [4]) [%] | responders at 100 mg/kg (Streptococcus pyogenes [3]) [%] | responders at 100 mg/kg (Escherichia coli [4]) [%]
1 | 50 (≈ 200 µM) | 50 (≈ 200 µM) | CCCSCc1c[n+]([O-])c2ccccc2[n+]1[O-] [H S--CH2 CH2 CH3, 2-n-propylthiomethylquinoxaline 1,4-dioxide] | 0 | 60 |  | 
2 | 1.56 (≈ 7.03 µM) | 1.56 (≈ 7.03 µM) | CSCc1c[n+]([O-])c2ccccc2[n+]1[O-] [H S--CH3, 2-methylthiomethylquinoxaline 1,4-dioxide] |  |  | 50 | 70
3 | < 0.391 | < 0.391 | CCS(=O)(=O)Cc1c[n+]([O-])c2ccccc2[n+]1[O-] [H SO2 --CH2 CH3, 2-Ethylsulfonylmethylquinoxaline-1,4-Dioxide] | 100 | 100 |  | 
4 | 1.56 (≈ 5.87 µM) | 6.25 (≈ 23.5 µM) | CCC[S+]([O-])Cc1c[n+]([O-])c2ccccc2[n+]1[O-] (centres unmarked) [H SO--CH2 CH2 CH3, 2-n-propylsulfinylmethylquinoxaline 1,4-dioxide] | 60 | 50 |  | 
5 | 0.781 (≈ 3.1 µM) | 3.12 (≈ 12.4 µM) | CC[S+]([O-])Cc1c[n+]([O-])c2ccccc2[n+]1[O-] (centres unmarked) [H SO--CH2 CH3, 2-Ethylsulfinylmethylquinoxaline 1,4-Dioxide] | 20 | 90 |  | 
6 | < 0.391 | < 0.391 | C[S+]([O-])Cc1c[n+]([O-])c2ccccc2[n+]1[O-] (centres unmarked) [H SO--CH3, 2-Methylsulfinylmethylquinoxaline 1,4-Dioxide] |  |  | 30 | 100

The remaining lines, values behind:

Row | SMILES | MIC (Streptococcus pyogenes [1]) [µg/mL] | MIC (Escherichia coli [2]) [µg/mL] | responders at 50 mg/kg (Streptococcus pyogenes [3]) [%] | responders at 25 mg/kg (Escherichia coli [4]) [%] | responders at 100 mg/kg (Streptococcus pyogenes [3]) [%] | responders at 100 mg/kg (Escherichia coli [4]) [%]
7 | Cc1c(CS(C)(=O)=O)[n+]([O-])c2ccccc2[n+]1[O-] [CH3 SO2 --CH3] | 1.56 (≈ 5.82 µM) | 3.12 (≈ 11.6 µM) | 10 | 70 |  | 
8 | Cc1c(C[S+](C)[O-])[n+]([O-])c2ccccc2[n+]1[O-] (centres unmarked) [CH3 SO--CH3, 2-methyl-3-methylsulfinylmethylquinoxaline 1,4-dioxide] | 25 (≈ 99.1 µM) | > 200 | 20 | 10 |  | 
9 | CCCS(=O)(=O)Cc1c[n+]([O-])c2ccccc2[n+]1[O-] [H SO2 --CH2 CH2 CH3] | 3.12 (≈ 11.1 µM) | 25 (≈ 88.6 µM) | 90 | 90 |  | 
10 | CS(=O)(=O)Cc1c[n+]([O-])c2ccccc2[n+]1[O-] [H SO2 --CH3, 2-Methylsulfonylmethylquinoxaline 1,4-Dioxide] | < 0.391 | < 0.391 | 90 | 100 |  | 
11 | CC(C)S(=O)(=O)Cc1c[n+]([O-])c2ccccc2[n+]1[O-] [H SO2 --CH(CH3)2] | 1.56 (≈ 5.53 µM) | 0.781 (≈ 2.77 µM) | 100 | 90 |  | 
